Measured values published in US9957271B2, “Substituted bicyclic aza-heterocycles and analogues as sirtuin modulators” (GlaxoSmithKline, LLC, priority 2012, dated 2018).

Legend:
SIRT1 [1] = biological target: T1, SIRT1 (Homo sapiens, UniProt Q96EB6); assay: TAMRA based mass spectrometry assay of SIRT1 activity; format: biochemical; details: for Emax: read-out: TAMRA % Fold Act
T1 sequence (Q96EB6 1-747): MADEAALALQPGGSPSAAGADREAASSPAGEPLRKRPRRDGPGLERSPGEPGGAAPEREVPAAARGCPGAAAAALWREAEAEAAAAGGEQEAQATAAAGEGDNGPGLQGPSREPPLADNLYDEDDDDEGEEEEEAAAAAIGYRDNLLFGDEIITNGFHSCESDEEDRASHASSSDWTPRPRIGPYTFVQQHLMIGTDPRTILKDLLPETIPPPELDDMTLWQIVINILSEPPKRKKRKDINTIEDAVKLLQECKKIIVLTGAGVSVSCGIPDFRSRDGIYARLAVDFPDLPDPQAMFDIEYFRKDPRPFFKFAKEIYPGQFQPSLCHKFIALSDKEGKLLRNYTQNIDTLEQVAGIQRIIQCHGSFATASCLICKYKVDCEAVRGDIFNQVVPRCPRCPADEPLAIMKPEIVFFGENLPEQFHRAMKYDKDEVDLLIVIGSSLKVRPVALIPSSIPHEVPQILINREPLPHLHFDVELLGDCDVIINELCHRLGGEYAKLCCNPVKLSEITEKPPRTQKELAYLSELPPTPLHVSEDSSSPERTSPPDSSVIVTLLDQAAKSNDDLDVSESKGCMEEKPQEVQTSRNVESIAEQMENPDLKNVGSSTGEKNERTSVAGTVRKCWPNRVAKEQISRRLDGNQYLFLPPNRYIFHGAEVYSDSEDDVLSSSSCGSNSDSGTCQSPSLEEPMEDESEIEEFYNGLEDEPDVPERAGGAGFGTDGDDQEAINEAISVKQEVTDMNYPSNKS
How it was run: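 Recombinant N-terminal His-tagged human SIRT1 (10 nM, E. coli) incubated 25 min at 25 °C with 0.5 μM 5TMR-labelled p53-derived acetyl-peptide and 120 μM βNAD+ in Tris-acetate pH 8 buffer with DTT and 0.05% BSA, compound at varying concentrations. Stopped with formic acid; deacetylated peptide or OAADPR measured by mass spectrometry relative to DMSO controls.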

SIRT1 [2] = biological target: T1, SIRT1; assay: Trp mass spectrometry assay of SIRT1 activity; format: biochemical; details: for Emax: read-out: Trp % Fold Act
How it was run: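 His-tagged SIRT1 expressed in E. coli BL21(DE3), 10 nM, incubated 25 min at 25° C. with 0.5 μM Ac-RHKK(Ac)W-NH2 peptide and 120 μM βNAD+ in 50 mM HEPES pH 7.5, […], 1 mM DTT, 0.05% BSA; formic acid stop. OAADPR or deacetylated peptide measured by mass spectrometry; EC1.5 and percent maximum activation versus DMSO control.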

[3] = TAMRA peptide substrate, concentration giving 150% activation of SIRT1
[4] = TAMRA peptide substrate, percent maximum fold activation
[5] = Trp peptide substrate, concentration giving 150% activation of SIRT1
[6] = Trp peptide substrate, percent maximum fold activation
[7] = TAMRA assay, concentration giving 150% activation of SIRT1
[8] = TAMRA assay, percent maximum fold activation
[9] = Trp assay, concentration giving 150% activation of SIRT1
[10] = Trp assay, percent maximum fold activation
[11] = concentration of test compound giving 150% activation of SIRT1, TAMRA peptide substrate
[12] = percent maximum fold activation of SIRT1, TAMRA peptide substrate
[13] = concentration of test compound giving 150% activation of SIRT1, Trp peptide substrate
[14] = percent maximum fold activation of SIRT1, Trp peptide substrate

Compound	TAMRA EC1.5 (SIRT1 [1]; [3])	Emax (SIRT1 [1]; [4])	Trp EC1.5 (SIRT1 [2]; [5])	Emax (SIRT1 [2]; [6])	TAMRA EC1.5 (μM) (SIRT1 [1]; [7])	Emax (SIRT1 [1]; [8])	Trp EC1.5 (μM) (SIRT1 [2]; [9])	Emax (SIRT1 [2]; [10])	also measured
O=C(Nc1ncn2ccc(-c3ccccc3C(F)(F)F)nc12)c1ccncn1 [Compound 484]	B (EC1.5 1-25 μM)	< 350%	C (EC1.5>25 μM)	< 350%	–	–	–	–	–
COc1ccc(NC(=O)c2c(C)nc3ccc(-c4ccccc4Cl)nn23)nn1 [Compound 743]	–	–	–	–	B (EC1.5 1-25 μM)	< 350%	C (EC1.5>25 μM)	< 350%	–
Cc1nn2ccc(-c3ccccc3C(F)(F)F)nc2c1C(=O)Nc1ccc(F)cn1 [Compound 686]	–	–	–	–	A (EC1.5<1 μM)	≥ 350%	A (EC1.5<1 μM)	< 350%	–
Cc1ncccc1NC(=O)c1cnc2ccc(-c3ccccc3C(F)(F)F)nn12 [Compound 113]	–	–	–	–	–	–	–	–	TAMRA EC1.5 (μM) (SIRT1 [1]; [11]): B (EC1.5 1-25 μM); Emax (SIRT1 [1]; [12]): < 350%; Trp EC1.5 (μM) (SIRT1 [2]; [13]): B (EC1.5 1-25 μM); Emax (SIRT1 [2]; [14]): < 350%
O=C(Nc1cnn2ccc(-c3ccccc3C(F)(F)F)nc12)c1ccncc1 [Compound 251]	–	–	–	–	C (EC1.5>25 μM)	< 350%	C (EC1.5>25 μM)	< 350%	–
COc1ccc(NC(=O)c2c(C)nc3ccc(-c4cccc(OC(F)(F)F)c4)nn23)nn1 [Compound 718]	–	–	–	–	A (EC1.5<1 μM)	< 350%	C (EC1.5>25 μM)	< 350%	–
Cc1nc2c(C)cc(-c3ccccc3C(F)(F)F)nn2c1C(=O)Nc1ccncn1 [Compound 460]	A (EC1.5<1 μM)	≥ 350%	A (EC1.5<1 μM)	≥ 350%	–	–	–	–	–
O=C(Nc1ccnc(CN2CCOCC2)n1)c1cnc2ccc(-c3ccccc3C(F)F)nn12 [Compound 38]	–	–	–	–	–	–	–	–	TAMRA EC1.5 (μM) (SIRT1 [1]; [11]): B (EC1.5 1-25 μM); Emax (SIRT1 [1]; [12]): < 350%; Trp EC1.5 (μM) (SIRT1 [2]; [13]): C (EC1.5>25 μM); Emax (SIRT1 [2]; [14]): < 350%
Cc1cccnc1NC(=O)c1c(C)nn2ccc(-c3ccccc3C(F)(F)F)nc12 [Compound 722, 2-methyl-N-(3-methylpyridin-2-yl)-5-(2-(trifluoromethyl)phenyl)pyrazolo[1,5-a]pyrimidine-3-carboxamide]	–	–	–	–	B (EC1.5 1-25 μM)	< 350%	A (EC1.5<1 μM)	≥ 350%	–

Now from value to molecule, other results behind:

TAMRA EC1.5 (SIRT1 [1]; [3])	Emax (SIRT1 [1]; [4])	Trp EC1.5 (SIRT1 [2]; [5])	Emax (SIRT1 [2]; [6])	TAMRA EC1.5 (μM) (SIRT1 [1]; [7])	Emax (SIRT1 [1]; [8])	Trp EC1.5 (μM) (SIRT1 [2]; [9])	Emax (SIRT1 [2]; [10])	Compound	also measured
B (EC1.5 1-25 μM)	< 350%	B (EC1.5 1-25 μM)	< 350%	–	–	–	–	CN(C)[C@@H]1CCN(c2ccc3ncc(C(=O)Nc4cccc(N5CCOCC5)n4)n3n2)C1 [Compound 511]	–
A (EC1.5<1 μM)	≥ 350%	A (EC1.5<1 μM)	≥ 350%	–	–	–	–	O=C(Nc1cncc(OC[C@H](O)CO)n1)c1cnc2ccc(-c3ccccc3C(F)(F)F)nn12 [Compound 555]	–
B (EC1.5 1-25 μM)	≥ 350%	B (EC1.5 1-25 μM)	< 350%	–	–	–	–	Cc1cc(C)nc(NC(=O)c2cnc3ccc(N4CC[C@H](F)C4)nn23)c1 [Compound 490]	–
A (EC1.5<1 μM)	≥ 350%	A (EC1.5<1 μM)	≥ 350%	–	–	–	–	Cc1c(-c2ccccc2C(F)(F)F)nn2c(NC(=O)c3cccc(N4CCCC4)n3)cnc2c1C [Compound 421]	–
–	–	–	–	B (EC1.5 1-25 μM)	≥ 350%	B (EC1.5 1-25 μM)	< 350%	O=C(Nc1ccc(CN2CCCC2)cn1)c1cnc2ccc(-c3ccccc3C(F)(F)F)nn12 [Compound 248]	–
A (EC1.5<1 μM)	≥ 350%	B (EC1.5 1-25 μM)	< 350%	–	–	–	–	Cc1cc(-c2ccccc2C(F)(F)F)nn2c(C(=O)Nc3ccc(F)cn3)cnc12 [Compound 542]	–
–	–	–	–	A (EC1.5<1 μM)	≥ 350%	C (EC1.5>25 μM)	< 350%	Cc1cc(C)nc(NC(=O)c2cnc3c(C)c(C)c(-c4ccccc4Cl)nn23)c1 [Compound 230]	–
